Measurements from BindingDB's records for doi:10.1021/np400148e (University of Eastern Piedmont, 2013).

Molecular target: Integrase (Human immunodeficiency virus 1, UniProt Q76353)
Test: Inhibition of HIV-1 integrase

COc1cc(C=CC(=O)CC(=O)C=Cc2ccc(O)c(OC)c2)ccc1O
IC50: 40 µM
